According to patent US9867923B2, “Reducing soluble urokinase receptor in the circulation” (University of Miami, priority 2011, dated 2018):

Tests used:
[1] = Proteinuria (Up/c) and serum creatinine in FSGS-CT cohort by treatment arm; type: in vivo, human
Description: (§1) To explore the effect of treatment on suPAR levels in the circulation, samples were analyzed in patients who were randomly assigned to either the CSA or MMF/dexamethasone arm of the trial. At baseline, there was no difference between the two treatment arms in age at sampling, age at disease onset, gender, race, proteinuria, serum albumin, serum creatinine, or eGFR (FIG. 7) as well as circulating suPAR levels by univariate analysis. […] When examining the alteration from baseline to 26 weeks, suPAR level was increased in CSA arm, but decreased in MMF arm and the changes in suPAR levels between the two arms were significant (P<0.05).
FSGS-CT is a randomized controlled study that compared the efficacy of cyclosporine (CSA) to the combination of mycophenolate mofetil (MMF) and dexamethasone. Key inclusion criteria were age 2-40 years, eGFR>40 ml/min per 1.73 m^2, biopsy-proven FSGS, and resistance to corticosteroid therapy. Exclusion criteria included secondary FSGS, obesity, or prior experimental therapy. […] Subjects were seen 11 times during the treatment period and, at each visit, blood pressure was measured and blood and urine were obtained to determine serum creatinine, eGFR, albumin, cholesterol concentration, and proteinuria (Gipson et al., Kidney Int'l 80:868-878, 2011). […]

circulating suPAR [2] = assay: Serum suPAR in FSGS-CT cohort by treatment arm; type: in vivo, human; conditions: for change in serum suPAR level from baseline to 26 weeks: FSGS-CT patients, MMF arm is MMF/dexamethasone
Description: as §1
FSGS-CT is a randomized controlled study that compared the efficacy of cyclosporine (CSA) to the combination of mycophenolate mofetil (MMF) and dexamethasone. Key inclusion criteria were age 2-40 years, eGFR>40 ml/min per 1.73 m^2, biopsy-proven FSGS, and resistance to corticosteroid therapy. Exclusion criteria included secondary FSGS, obesity, or prior experimental therapy. All subjects received lisinopril or losartan in those who were intolerant of angiotensin converting enzyme inhibitor. Subjects were treated for 52 weeks. The primary outcome was normalization of proteinuria defined as a urine protein:creatinine ratio (Up/c)<0.2 in a first morning urine sample after 52 weeks of active treatment with the study medication(s). The main secondary outcome was based on the level of proteinuria at 78 weeks, six months after discontinuation of the study drugs. Subjects were seen 11 times during the treatment period and, at each visit, blood pressure was measured and blood and urine were obtained to determine serum creatinine, eGFR, albumin, cholesterol concentration, and proteinuria (Gipson et al., Kidney Int'l 80:868-878, 2011). The serum samples collected at baseline (W01) and 26 weeks (W26) on treatment (n=35 in each arm) were retrieved from the NIDDK Biorepository for suPAR measurement.
(§2) The measurement of serum suPAR was performed using a Quantikine human uPAR immunoassay kit (R&D Systems).

circulating suPAR [3] = assay: Circulating suPAR in PodoNet cohort by medication; type: in vivo, human; conditions: medication at time of blood sampling
Description: In contrast to FSGS-CT, where patients were randomly assigned to either CSA or MMF therapy, treatment in PodoNet was at the discretion of the attending physicians. For the purpose of this analysis, patients were grouped according to the medication they received at the time of blood sampling: MMF or a calcineurin inhibitor. […] Overall, there was no significant difference between the two groups based on their demographic features or laboratory measurements (e.g., proteinuria, serum albumin, eGFR, and serum creatinine).
PodoNet is a consortium for clinical, genetic, and experimental study of steroid-resistant nephrotic syndrome (SRNS). The inclusion criteria are children (age 0-18 years old) with SRNS based on management protocols at the participating medical centers and adults with familial SRNS. Patients who were included into this study had biopsy proven FSGS (n=94). The treatment of subjects was clinically determined and managed by their attending physician.
as §2

[4] = cited from earlier work
[5] = Retrospective study of recurrent or de novo FSGS after renal transplantation: renal parameters pre-post treatment; type: in vivo, human; conditions: for Mean Foot Process Effacement, Mean Post ± SD / Proteinuria, Mean Post ± SD / Serum Creatinine, Mean Post ± SD: post-treatment; for Mean Foot Process Effacement, Mean Pre ± SD / Proteinuria, Mean Pre ± SD / Serum Creatinine, Mean Pre ± SD: pre-treatment
Description: Treatment with plasmapheresis (PXP) started at the time of FSGS recurrence or de novo manifesting by the onset or worsening of proteinuria. Subjects completed a median of 21 plasmapheresis sessions (IQR: 10-23). Twelve subjects were refractory to plasmapheresis and received adjunctive rituximab infusion. Eight (32%) subjects had complete remission, and an additional 12 (48%) individuals achieved partial remission. With treatment (Table 5), the overall mean serum creatinine improved from 3.1 mg/dl±2.3 mg/dl to 2.1 mg/dl±1.2 mg/dl (P=0.07), and the mean eGFR improved from 35.6 ml/min±19.4 ml/min to 46.0 ml/min±24.3 ml/min per 1.73 m^2 (P=0.01). Additionally, among responders the serum creatinine declined further from 3.1 mg/dl±2.5 mg/dl to 1.9 mg/dl±0.6 mg/dl (P=0.48).
We conducted a retrospective observational study of all adult renal transplant recipients who underwent renal transplantation between Jan. 1, 2003 to Dec. 31, 2011, and developed recurrent or de novo FSGS after kidney transplantation at a single tertiary hospital. We identified 105 renal transplant recipients aged 18 years and older. Ninety-three had native kidney biopsy-proven FSGS; 12 having a probable FSGS diagnosis. Twenty-five individuals developed de novo FSGS (n=4) and recurrent FSGS (n=21) following renal transplantation. Recurrent FSGS was defined by the presence of proteinuria (more than 1 g/24 hours) in individuals who were anuric prior to renal transplantation ([…]) or worsening proteinuria among those who were not anuric prior to renal transplantation (n=15). De novo FSGS was defined as the new onset of proteinuria following renal transplantation in a recipient whose primary cause of ESRD was not attributed to FSGS. The diagnosis was confirmed by the presence of podocyte foot process effacement on the allograft biopsy obtained prior to or within 14 days of treatment commencement. The Johns Hopkins University School of Medicine Institutional Review Board approved this study.
Socio-demographic and clinical data were abstracted from patient medical records using double data entry from the time of renal transplantation to three years following renal transplantation or the last available clinical follow-up. Donor clinical characteristics collected included donor vital status, relatedness to the recipient, and ABO-compatibility with recipient. Recipient clinical characteristics included age at FSGS diagnosis, primary cause of ESRD, number of prior renal transplantations, duration among those receiving dialysis, serum creatinine and proteinuria defined by urine protein-to-creatinine ratio. Glomerular filtration rate (eGFR) was estimated using the CKD-Epi equation which adjusts for age, gender, and race (Levey et al., Ann. Intern. Med. 150:604-612, 2009). Recipients were treated with plasmapheresis. Those with persistently significant proteinuria were also given one or two rituximab infusions. Complete response was defined by a decrease in proteinuria to below 1 g/g upon completion of the treatment course and/or on the last available quantification of proteinuria. Partial response to therapy was defined as a decline in proteinuria at the end of treatment by 50% from the peak proteinuria level, but with proteinuria remaining 1 g/g or greater at the end of treatment. Renal histopathology was assessed by a renal pathologist using light microscopy, immunofluorescence and electron microscopy. The degree of podocyte foot process effacement was based upon biopsy reports as well as secondary assessments of the electron microscopy by a second renal pathologist blinded to the original biopsy report and the recipient's outcome. These two assessments were then averaged to obtain the mean podocyte foot process effacement, which was categorized as <25% (mild), 25%-74% (moderate), and 75% or greater (severe). Baseline electron microscopy results were obtained from renal biopsies performed prior or shortly after the initiation of therapy. […]

**Q.** For COc1c(C)c2c(c(O)c1C/C=C(\C)CCC(=O)OCCN1CCOCC1)C(=O)OC2 [MMF, mycophenolate mofetil], which “decrease in serum creatinine from baseline to 26 weeks, MMF arm compared to CSA arm” value ([1]; P<0.001) is on record?
**A.** The value was “significantly greater decrease”.

**Q.** What about the “decrease in Up/c from baseline to 26 weeks, MMF arm compared to CSA arm” value ([1]; P<0.05) of the same molecule?
**A.** Its value is “significantly greater decrease”.

**Q.** And the “change in serum suPAR level from baseline to 26 weeks” value (circulating suPAR [2])?
**A.** Its value is “decreased”.

**Q.** What about the “change in serum suPAR level from baseline to 26 weeks” value (circulating suPAR [2]; listed as mycophenolate mofetil) of the same molecule?
**A.** Its value is “decreased significantly”.

**Q.** What about the “serum suPAR level after treatment” value (circulating suPAR [2]; FSGS-CT, MMF-treated patients, mean ± SEM (±264), P<0.01) of the same molecule?
**A.** Its value is 4113 pg/mL.

**Q.** What about the “serum suPAR level before treatment” value (circulating suPAR [2]; FSGS-CT, MMF-treated patients, mean ± SEM (±292)) of the same molecule?
**A.** The value was 5064 pg/mL.

**Q.** And the “circulating suPAR level, patients who received the medication versus those who did not” value (circulating suPAR [3])?
**A.** Its value is “significantly lower”.

**Q.** With O=C[C@H](O)[C@@H](O)[C@@H](O)[C@H](O)CO [galactose] as the molecule, how does the proteinuria outcome ([4]; dialysis-dependent patient (Savin et al., 2008)) read?
**A.** The proteinuria outcome was “no improvement of proteinuria”.

**Q.** What about the nephrotic syndrome outcome ([4]; oral galactose, patient resistant to corticosteroids, immunosuppression and plasmapheresis (De Smet et al., 2009)) of the same molecule?
**A.** Its nephrotic syndrome outcome is “remission for more than two years”.

**Q.** Which “Proteinuria, Most recent” value ([5]; overall, n = 12) does the source give for “PXP + rituximab: plasmapheresis (PXP) with adjunctive rituximab infusion in subjects refractory to plasmapheresis” here?
**A.** The value was 7 ± 12.7 g/g.

**Q.** What about the “Proteinuria, Peak” value ([5]; overall, n = 12) of the same molecule?
**A.** The value was 12.5 ± 12.7 g/g.

**Q.** What about the “Mean Foot Process Effacement, Mean Post ± SD” value ([5]; overall, n = 10) of the same molecule?
**A.** The value was 21 ± 27%.

**Q.** And the “Proteinuria, Mean Post ± SD” value ([5]; overall, n = 12)?
**A.** Its value is 6.6 ± 12.5 g/g.

**Q.** What about the “Serum Creatinine, Mean Post ± SD” value ([5]; overall, n = 12) of the same molecule?
**A.** The value was 2.1 ± 0.88 mg/dL.

**Q.** What about the “Mean Foot Process Effacement, Mean Pre ± SD” value ([5]; overall, n = 10) of the same molecule?
**A.** Its value is 49 ± 32%.

**Q.** What about the “Proteinuria, Mean Pre ± SD” value ([5]; overall, n = 12) of the same molecule?
**A.** Its value is 4.4 ± 3.1 g/g.

**Q.** What about the “Serum Creatinine, Mean Pre ± SD” value ([5]; overall, n = 12) of the same molecule?
**A.** The value was 3 ± 2.7 mg/dL.

**Q.** And the “Proteinuria, Last” value ([5]; responders, n = 9)?
**A.** The value was 1.7 ± 1.2 g/g.

**Q.** And the “Proteinuria, Peak” value ([5]; responders, n = 9)?
**A.** The value was 7.6 ± 4.9 g/g.

**Q.** And the “Mean Foot Process Effacement, Mean Post ± SD” value ([5]; responders, n = 7)?
**A.** The value was 14 ± 14%.

**Q.** And the “Proteinuria, Mean Post ± SD” value ([5]; responders, n = 9)?
**A.** The value was 1.9 ± 1.4 g/g.

**Q.** What about the “Serum Creatinine, Mean Post ± SD” value ([5]; responders, n = 12) of the same molecule?
**A.** Its value is 2.1 ± 0.7 mg/dL.

**Q.** What about the “Mean Foot Process Effacement, Mean Pre ± SD” value ([5]; responders, n = 7) of the same molecule?
**A.** Its value is 34 ± 27%.

**Q.** What about the “Proteinuria, Mean Pre ± SD” value ([5]; responders, n = 9) of the same molecule?
**A.** The value was 4.1 ± 3.4 g/g.

**Q.** And the “Serum Creatinine, Mean Pre ± SD” value ([5]; responders, n = 12)?
**A.** The value was 3 ± 2.96 mg/dL.
